Source: US20260191968A1, “PROTAC DEGRADERS OF MLLT1 AND/OR MLLT3” (DARK BLUE THERAPEUTICS LTD, priority 2024, published 2026)

Assays:
Type in all cases: cell-based
MLLT1 [1] = biological target: T1, MLLT1 (Homo sapiens, UniProt Q03111); test: MLLT1 DC50 and Dmax determination in MV4-11 cells (JESS), dose response, 4 h; details: MLLT1 degradation; for Dmax: maximum % degradation observed
T1 construct: host or cells: MV4-11
T1 sequence (Q03111 1-559): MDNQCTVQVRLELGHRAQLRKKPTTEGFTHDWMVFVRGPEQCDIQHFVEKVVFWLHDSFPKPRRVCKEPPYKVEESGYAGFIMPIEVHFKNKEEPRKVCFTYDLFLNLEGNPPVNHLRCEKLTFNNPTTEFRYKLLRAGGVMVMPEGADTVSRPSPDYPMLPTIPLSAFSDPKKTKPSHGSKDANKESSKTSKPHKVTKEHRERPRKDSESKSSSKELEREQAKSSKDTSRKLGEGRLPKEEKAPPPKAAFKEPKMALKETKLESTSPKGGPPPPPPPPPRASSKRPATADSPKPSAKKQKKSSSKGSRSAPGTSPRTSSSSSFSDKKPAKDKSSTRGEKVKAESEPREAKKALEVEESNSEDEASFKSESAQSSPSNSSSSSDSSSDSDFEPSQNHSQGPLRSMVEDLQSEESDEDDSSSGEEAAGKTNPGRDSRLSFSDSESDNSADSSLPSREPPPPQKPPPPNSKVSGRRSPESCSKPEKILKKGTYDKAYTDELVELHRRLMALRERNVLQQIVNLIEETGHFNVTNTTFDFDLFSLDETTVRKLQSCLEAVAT
Method: MLLT1 degradation efficacy of compounds was tested in an automated chemiluminescent detection system (JESS, Cat #004-650). MV4-11 (#CRL-9591, ATCC) were seeded at a density of 1.2 million cells/well in a non-treated 6-well cell culture plate in 2.4 mL of complete medium (IMDM+10% FBS+1X Penicillin-Streptomycin). 10 mM DMSO stocks were prepared, and cells were treated with eight concentrations of test compounds, starting from 100 nM, 5-fold dilution, at a final DMSO concentration of 0.1% and incubated for 4 h at 37° C., 5% CO2. Post incubation, cells were centrifuged, washed with HBSS and lysed in 60 μL of RIPA buffer supplemented with Protease inhibitors (sc-24948; Santa Cruz). Protein estimation was done using BCA protein assay kit (23228; Pierce). 4 μg protein lysate (4 μL of 1 μg/μL lysate) was loaded into each well of the JESS cartridge (SM-W004; Bio-techne) and the JESS run was performed using 1:900 dilution of anti-human MLLT1 antibody (ABE2596; Merck) and 1:1200 dilution of anti-human GAPDH antibody (2118; Cell signaling technology) with anti-rabbit secondary detection module (DM-001; Bio-Techne). Post run, data was analysed using “Compass for SW” software for chemiluminescent detection. Peak fit was done using “dropped lines” method. Peak area for MLLT1 and GAPDH was used for the calculation of MLLT1 degradation with respect to DMSO control. Data was shown as “% degradation”. % Degradation was plotted against the respective doses (test compound concentration) and dose-response curve (DRC) was generated using four-parameter logistic equation (non-linear regression). Following parameters for each DRC was captured: DC50 (concentration in nM at which degradation is 50%, interpolated from standard curve and transformed to linear scale), Dmax (maximum % degradation observed). DC50 and Dmax data are captured in Table 9 for Example 8 and Example 234, which is a comparative example.

MLLT1 [2] = biological target: T1, MLLT1; test: MLLT1 degradation assay in MV4-11 cells (JESS chemiluminescent detection), three concentrations, 24 h; details: with respect to DMSO control
Summary of the method: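 Read-out is % MLLT1 degradation versus DMSO, from band peak areas on a JESS chemiluminescent system. Cells (MV4-11) were exposed for 24 h at 37° C to three compound levels, 10, 100 and 1000 nM, in 0.1% DMSO.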

MV4-11 cells [3] = test: MV4-11 cellular proliferative assay, Assay Format B (CTG 2.0, 168 h); details: Homo sapiens
Summary of the method: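 Viability read by CellTiter-Glo 2.0 luminescence after 7-day (168 h) compound exposure of MV4-11 cells in IMDM/10% FBS. Ten 3-fold concentrations starting at 1 uM or 100 nM, 0.3% final DMSO; curves normalised to DMSO control, four-parameter fit.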

MV4-11 cells [4] = test: MV4-11 cellular proliferative assay, Assay Format A (CellTiter-Glo, 120 hours); details: Homo sapiens
Method: An MV4-11 proliferation assay was used to test the ability of compounds to reduce cell viability. MV4-11 cells (ATCC #CRL9591) were grown in IMDM medium (11510596, Gibco) supplemented with 10% fetal bovine serum (F7524, Gibco) and 1% Penicillin/Streptomycin (15140-122, Gibco) at 37° C. with 5% CO2. Cells were seeded in 384-well Elplasia plates (4447, Corning) at a density of 50 cells/well and treated with vehicle (DMSO) or compounds (10 serial semi-log dilutions, 30 μM as top concentration).
After 120 hours of treatment, cells were incubated for 10 min at RT with the CellTiter-Glo (CTG) reagent (G7571, Promega). Measurement of the luminescence signal was performed on a microplate reader (Ensight, PerkinElmer). CTG reagent measures the amount of ATP, which is directly proportional to the number of cells, to determine the number of viable cells in culture.
The data were analysed as follows:
where x is the measured raw signal value of a well, (cr) is the median of the measured signal values for the Central Reference (DMSO) wells on a plate, (sr) is the median of the measured signal values for the Scale Reference (reference compound) wells on a plate.
where the experimental set-up assumes the Hill parameters in certain ranges: S0~Central Reference (CR) from normalization (=Bottom), Sinf~Scale Reference (SR) from normalization (=Top), nHill~1, AC50~within the measured concentration range.

[5] = Assay Method B, read-out: MV4-11 Antiproliferation IC50

| DC50 (MLLT1 [1]) [µM] | Dmax (MLLT1 [1]) [%] | MLLT1% Degradation @ 0.01 μM (MLLT1 [2]) | MLLT1% Degradation @ 0.1 μM (MLLT1 [2]) | MLLT1% Degradation @ 1 μM (MLLT1 [2]) | IC50 (MV4-11 cells [3]; 168 h (7 days), CTG 2.0, read-out: IC50 (MV4-11 cellular proliferative assay, Assay format B)) [µM] | IC50 (MV4-11 cells [3]; [5]) [µM] | IC50 (MV4-11 cells [4]) [µM] | Structure (SMILES) |
| --- | --- | --- | --- | --- | --- | --- | --- | --- |
| 0.0004 | 87 | A (Category A: A ≥ 75% degradation) | A (Category A: A ≥ 75% degradation) | A (Category A: A ≥ 75% degradation) | ≤ 0.1 | 0.0015 |  | CN1CCC[C@@H]1c1cc2cnc(NC(=O)c3ccc(CCCCC#Cc4cccc5c4CN(C4CCC(=O)NC4=O)C5=O)cc3)cc2[nH]1 (mixture of isomers) [Example 8, 4-(6-(2-(2,6-dioxopiperidin-3-yl)-1-oxoisoindolin-4-yl)hex-5-yn-1-yl)-N-(2-((R)-1-methylpyrrolidin-2-yl)-1H-pyrrolo[3,2-c]pyridin-6-yl)benzamide] |
|  |  | A (Category A: A ≥ 75% degradation) | A (Category A: A ≥ 75% degradation) | A (Category A: A ≥ 75% degradation) |  |  | ≤ 0.1 | CN1CCC[C@@H]1c1cc2cnc(NC(=O)c3ccc(OCCCC#Cc4cccc5c4CN(C4CCC(=O)NC4=O)C5=O)cc3)cc2[nH]1 (stereo partly drawn) [Example 56, 4-((5-(2-(2,6-dioxopiperidin-3-yl)-1-oxoisoindolin-4-yl)pent-4-yn-1-yl)oxy)-N-(2-((R)-1-methylpyrrolidin-2-yl)-1H-pyrrolo[3,2-c]pyridin-6-yl)benzamide] |
|  |  | A (Category A: A ≥ 75% degradation) | A (Category A: A ≥ 75% degradation) | A (Category A: A ≥ 75% degradation) |  |  | ≤ 0.1 | CN1CCC[C@@H]1c1cc2cnc(NC(=O)c3ccc(OCC#Cc4cccc5c4CN(C4CCC(=O)NC4=O)C5=O)cc3F)cc2[nH]1 (stereo partly drawn) [Example 57, 4-((3-(2-(2,6-dioxopiperidin-3-yl)-1-oxoisoindolin-4-yl)prop-2-yn-1-yl)oxy)-2-fluoro-N-(2-((R)-1-methylpyrrolidin-2-yl)-1H-pyrrolo[3,2-c]pyridin-6-yl)benzamide] |
| 0.0064 | 60 |  |  |  |  | > 1 |  | O=C1CCC(N2Cc3c(C#CCCCCc4ccc(C(=O)Nc5cc6[nH]c(CN7CCCC7)cc6cn5)cc4)cccc3C2=O)C(=O)N1 (centres unmarked) [Example 234, 4-(6-(2-(2,6-dioxopiperidin-3-yl)-1-oxoisoindolin-4-yl)hex-5-yn-1-yl)-N-(2-(pyrrolidin-1-ylmethyl)-1H-pyrrolo[3,2-c]pyridin-6-yl)benzamide] |

| Structure (SMILES) | DC50 (MLLT1 [1]) [µM] | Dmax (MLLT1 [1]) [%] | MLLT1% Degradation @ 0.01 μM (MLLT1 [2]) | MLLT1% Degradation @ 0.1 μM (MLLT1 [2]) | MLLT1% Degradation @ 1 μM (MLLT1 [2]) | IC50 (MV4-11 cells [3]; 168 h (7 days), CTG 2.0, read-out: IC50 (MV4-11 cellular proliferative assay, Assay format B)) [µM] | IC50 (MV4-11 cells [3]; [5]) [µM] | IC50 (MV4-11 cells [4]) [µM] |
| --- | --- | --- | --- | --- | --- | --- | --- | --- |
| CN1CCC[C@@H]1c1cc2cnc(NC(=O)c3ccc(CCC#Cc4cccc5c4CN(C4CCC(=O)NC4=O)C5=O)cc3F)cc2[nH]1 (stereo partly drawn) [Example 54, 4-(4-(2-(2,6-dioxopiperidin-3-yl)-1-oxoisoindolin-4-yl)but-3-yn-1-yl)-2-fluoro-N-(2-((R)-1-methylpyrrolidin-2-yl)-1H-pyrrolo[3,2-c]pyridin-6-yl)benzamide] |  |  | A (Category A: A ≥ 75% degradation) | A (Category A: A ≥ 75% degradation) | B (Category B: 50% ≤ B < 75% degradation) |  |  | ≤ 0.1 |
| CN1CCC[C@@H]1c1cc2cnc(NC(=O)c3cccc(OCC#Cc4cccc5c4CN(C4CCC(=O)NC4=O)C5=O)c3)cc2[nH]1 (stereo partly drawn) [Example 58, 3-((3-(2-(2,6-dioxopiperidin-3-yl)-1-oxoisoindolin-4-yl)prop-2-yn-1-yl)oxy)-N-(2-((R)-1-methylpyrrolidin-2-yl)-1H-pyrrolo[3,2-c]pyridin-6-yl)benzamide] |  |  | B (Category B: 50% ≤ B < 75% degradation) | A (Category A: A ≥ 75% degradation) | C (Category C: 25% ≤ C < 50% degradation) |  |  | ≤ 0.1 |
